Experimental data reported in patent US20210254056A1, “IDENTIFICATION AND TARGETED MODULATION OF GENE SIGNALING NETWORKS” (CAMP4 THERAPEUTICS CORPORATION, priority 2017, published 2021).

Test system: hepatocytes
Assay: RNA-seq of hepatocytes treated with Phase III failure compounds
Description: RNA-seq was performed to determine the effects of the compounds on hepatocytes.
Significance was determined by the criteria of FPKM≥0.5, a log 2(fold-change)≥1, and a […].

With `CCC(CC)[C@H](NC(C)=O)[C@@H]1[C@H](O)[C@@H](C(=O)O)C[C@H]1NC(=N)N.O.O.O` [peramivir (trihydrate), peramivir] as the molecule, how does the “RNA-seq results, gene HYLS1” value (HYLS1 expression in hepatocytes) read?
The value was −0.16.

What about the “RNA-seq results, gene ID1” value (ID1 expression in hepatocytes) of the same molecule?
Its value is −0.69.

What about the “RNA-seq results, gene IDH1” value (IDH1 expression in hepatocytes) of the same molecule?
The value was 0.19.

What about the “RNA-seq results, gene IDH2” value (IDH2 expression in hepatocytes) of the same molecule?
The value was 0.

What about the “RNA-seq results, gene IDUA” value (IDUA expression in hepatocytes) of the same molecule?
The value was 0.34.

And the “RNA-seq results, gene IFIH1” value (IFIH1 expression in hepatocytes)?
Its value is −0.06.

And the “RNA-seq results, gene IFNAR2” value (IFNAR2 expression in hepatocytes)?
The value was 0.01.

What about the “RNA-seq results, gene IFT27” value (IFT27 expression in hepatocytes) of the same molecule?
Its value is 0.27.

And the “RNA-seq results, gene IFT80” value (IFT80 expression in hepatocytes)?
The value was −0.41.

What about the “RNA-seq results, gene IFT122” value (IFT122 expression in hepatocytes) of the same molecule?
Its value is −0.16.

And the “RNA-seq results, gene IFT140” value (IFT140 expression in hepatocytes)?
The value was 0.27.

What about the “RNA-seq results, gene IFT172” value (IFT172 expression in hepatocytes) of the same molecule?
Its value is 0.16.

And the “RNA-seq results, gene IGFALS” value (IGFALS expression in hepatocytes)?
Its value is 0.11.

And the “RNA-seq results, gene IKBKG” value (IKBKG expression in hepatocytes)?
The value was 0.3.

What about the “RNA-seq results, gene IL1RN” value (IL1RN expression in hepatocytes) of the same molecule?
The value was 0.21.

What about the “RNA-seq results, gene IL2RG” value (IL2RG expression in hepatocytes) of the same molecule?
The value was 0.6.

And the “RNA-seq results, gene INSR” value (INSR expression in hepatocytes)?
Its value is 0.28.

And the “RNA-seq results, gene INVS” value (INVS expression in hepatocytes)?
The value was −0.03.

What about the “RNA-seq results, gene ISYNA1” value (ISYNA1 expression in hepatocytes) of the same molecule?
The value was −0.17.

What about the “RNA-seq results, gene ITGB3” value (ITGB3 expression in hepatocytes) of the same molecule?
The value was 0.27.

What about the “RNA-seq results, gene IYD” value (IYD expression in hepatocytes) of the same molecule?
Its value is −0.02.

What about the “RNA-seq results, gene JAG1” value (JAG1 expression in hepatocytes) of the same molecule?
The value was −0.1.

And the “RNA-seq results, gene JAK2” value (JAK2 expression in hepatocytes)?
Its value is −0.14.

And the “RNA-seq results, gene KCTD7” value (KCTD7 expression in hepatocytes)?
The value was 0.11.

What about the “RNA-seq results, gene KCTD11” value (KCTD11 expression in hepatocytes) of the same molecule?
The value was −0.21.

And the “RNA-seq results, gene KHK” value (KHK expression in hepatocytes)?
Its value is 0.03.

What about the “RNA-seq results, gene KIAA0586” value (KIAA0586 expression in hepatocytes) of the same molecule?
Its value is −0.2.

What about the “RNA-seq results, gene KMT2D” value (KMT2D expression in hepatocytes) of the same molecule?
Its value is −0.05.

What about the “RNA-seq results, gene KPTN” value (KPTN expression in hepatocytes) of the same molecule?
Its value is 0.22.

And the “RNA-seq results, gene KRIT1” value (KRIT1 expression in hepatocytes)?
Its value is −0.1.

What about the “RNA-seq results, gene KRT18” value (KRT18 expression in hepatocytes) of the same molecule?
The value was −0.47.

What about the “RNA-seq results, gene KYNU” value (KYNU expression in hepatocytes) of the same molecule?
The value was 0.16.

What about the “RNA-seq results, gene LAMB2” value (LAMB2 expression in hepatocytes) of the same molecule?
The value was 0.01.

What about the “RNA-seq results, gene LCAT” value (LCAT expression in hepatocytes) of the same molecule?
The value was 0.11.

And the “RNA-seq results, gene LDHB” value (LDHB expression in hepatocytes)?
Its value is −0.34.

And the “RNA-seq results, gene LDLR” value (LDLR expression in hepatocytes)?
Its value is 0.24.

And the “RNA-seq results, gene LDLRAP1” value (LDLRAP1 expression in hepatocytes)?
Its value is 0.2.

And the “RNA-seq results, gene LIPC” value (LIPC expression in hepatocytes)?
Its value is −0.29.

And the “RNA-seq results, gene LIPT1” value (LIPT1 expression in hepatocytes)?
The value was −0.12.

What about the “RNA-seq results, gene LMNB2” value (LMNB2 expression in hepatocytes) of the same molecule?
The value was 0.14.

What about the “RNA-seq results, gene LPA” value (LPA expression in hepatocytes) of the same molecule?
The value was 0.07.

What about the “RNA-seq results, gene LPIN1” value (LPIN1 expression in hepatocytes) of the same molecule?
Its value is 0.22.

And the “RNA-seq results, gene LPIN2” value (LPIN2 expression in hepatocytes)?
Its value is 0.1.

And the “RNA-seq results, gene LRBA” value (LRBA expression in hepatocytes)?
Its value is −0.32.

And the “RNA-seq results, gene LRP5” value (LRP5 expression in hepatocytes)?
The value was 0.15.

And the “RNA-seq results, gene LYRM4” value (LYRM4 expression in hepatocytes)?
Its value is 0.19.

And the “RNA-seq results, gene LYST” value (LYST expression in hepatocytes)?
Its value is −0.14.

And the “RNA-seq results, gene MAN1A1” value (MAN1A1 expression in hepatocytes)?
Its value is −0.26.

And the “RNA-seq results, gene MAN2B1” value (MAN2B1 expression in hepatocytes)?
Its value is 0.13.

And the “RNA-seq results, gene MAOB” value (MAOB expression in hepatocytes)?
The value was −0.16.

And the “RNA-seq results, gene MAT1A” value (MAT1A expression in hepatocytes)?
The value was 0.3.

What about the “RNA-seq results, gene MBL2” value (MBL2 expression in hepatocytes) of the same molecule?
The value was −0.47.

What about the “RNA-seq results, gene MCCC1” value (MCCC1 expression in hepatocytes) of the same molecule?
The value was 0.01.

And the “RNA-seq results, gene MCCC2” value (MCCC2 expression in hepatocytes)?
The value was −0.2.

What about the “RNA-seq results, gene MCM6” value (MCM6 expression in hepatocytes) of the same molecule?
The value was −0.05.

And the “RNA-seq results, gene MEN1” value (MEN1 expression in hepatocytes)?
Its value is 0.15.

What about the “RNA-seq results, gene MET” value (MET expression in hepatocytes) of the same molecule?
Its value is −0.2.

What about the “RNA-seq results, gene MGAT2” value (MGAT2 expression in hepatocytes) of the same molecule?
The value was 0.09.

And the “RNA-seq results, gene MKS1” value (MKS1 expression in hepatocytes)?
The value was 0.17.

What about the “RNA-seq results, gene MLH1” value (MLH1 expression in hepatocytes) of the same molecule?
The value was −0.06.

And the “RNA-seq results, gene MMAA” value (MMAA expression in hepatocytes)?
The value was −0.35.

What about the “RNA-seq results, gene MMAB” value (MMAB expression in hepatocytes) of the same molecule?
The value was 0.27.

And the “RNA-seq results, gene MMADHC” value (MMADHC expression in hepatocytes)?
Its value is −0.24.

What about the “RNA-seq results, gene MOCS1” value (MOCS1 expression in hepatocytes) of the same molecule?
Its value is 0.13.

What about the “RNA-seq results, gene MOGAT2” value (MOGAT2 expression in hepatocytes) of the same molecule?
Its value is −0.04.

And the “RNA-seq results, gene MOGS” value (MOGS expression in hepatocytes)?
Its value is 0.24.

What about the “RNA-seq results, gene MPZ” value (MPZ expression in hepatocytes) of the same molecule?
Its value is 0.41.

And the “RNA-seq results, gene MRPL3” value (MRPL3 expression in hepatocytes)?
Its value is −0.06.

And the “RNA-seq results, gene MTHFR” value (MTHFR expression in hepatocytes)?
The value was 0.35.

What about the “RNA-seq results, gene MTM1” value (MTM1 expression in hepatocytes) of the same molecule?
The value was −0.13.

And the “RNA-seq results, gene MTO1” value (MTO1 expression in hepatocytes)?
The value was −0.03.

And the “RNA-seq results, gene MTR” value (MTR expression in hepatocytes)?
Its value is −0.08.

What about the “RNA-seq results, gene MTRR” value (MTRR expression in hepatocytes) of the same molecule?
Its value is −0.2.

What about the “RNA-seq results, gene MTTP” value (MTTP expression in hepatocytes) of the same molecule?
The value was −0.29.

What about the “RNA-seq results, gene MVK” value (MVK expression in hepatocytes) of the same molecule?
The value was 0.29.

And the “RNA-seq results, gene MYH9” value (MYH9 expression in hepatocytes)?
The value was 0.02.

And the “RNA-seq results, gene MYO5B” value (MYO5B expression in hepatocytes)?
The value was 0.2.

And the “RNA-seq results, gene NAGS” value (NAGS expression in hepatocytes)?
Its value is 0.46.

What about the “RNA-seq results, gene NARS2” value (NARS2 expression in hepatocytes) of the same molecule?
Its value is −0.14.

And the “RNA-seq results, gene NAT2” value (NAT2 expression in hepatocytes)?
Its value is −0.1.

And the “RNA-seq results, gene NBAS” value (NBAS expression in hepatocytes)?
The value was −0.22.

And the “RNA-seq results, gene NCF2” value (NCF2 expression in hepatocytes)?
The value was 0.47.

And the “RNA-seq results, gene NEK1” value (NEK1 expression in hepatocytes)?
Its value is 0.1.

And the “RNA-seq results, gene NEK8” value (NEK8 expression in hepatocytes)?
Its value is 0.29.

What about the “RNA-seq results, gene NEU1” value (NEU1 expression in hepatocytes) of the same molecule?
Its value is 0.51.

What about the “RNA-seq results, gene NFKB2” value (NFKB2 expression in hepatocytes) of the same molecule?
Its value is 0.12.

What about the “RNA-seq results, gene NFKBIA” value (NFKBIA expression in hepatocytes) of the same molecule?
The value was −0.06.

And the “RNA-seq results, gene NFU1” value (NFU1 expression in hepatocytes)?
Its value is −0.04.

What about the “RNA-seq results, gene NGLY1” value (NGLY1 expression in hepatocytes) of the same molecule?
Its value is −0.07.

And the “RNA-seq results, gene NHP2” value (NHP2 expression in hepatocytes)?
Its value is 0.21.

What about the “RNA-seq results, gene NME1” value (NME1 expression in hepatocytes) of the same molecule?
Its value is 0.06.

And the “RNA-seq results, gene NOD2” value (NOD2 expression in hepatocytes)?
The value was 0.33.

And the “RNA-seq results, gene NOP10” value (NOP10 expression in hepatocytes)?
The value was 0.2.

What about the “RNA-seq results, gene NOTCH1” value (NOTCH1 expression in hepatocytes) of the same molecule?
The value was 0.16.

And the “RNA-seq results, gene NOTCH2” value (NOTCH2 expression in hepatocytes)?
Its value is −0.03.

What about the “RNA-seq results, gene NPC1” value (NPC1 expression in hepatocytes) of the same molecule?
The value was 0.3.

And the “RNA-seq results, gene NR1H4” value (NR1H4 expression in hepatocytes)?
Its value is 0.22.

And the “RNA-seq results, gene NUBPL” value (NUBPL expression in hepatocytes)?
Its value is −0.06.

And the “RNA-seq results, gene NUDT7” value (NUDT7 expression in hepatocytes)?
The value was −0.23.

What about the “RNA-seq results, gene NUDT12” value (NUDT12 expression in hepatocytes) of the same molecule?
The value was −0.17.

And the “RNA-seq results, gene OAT” value (OAT expression in hepatocytes)?
The value was 0.1.

What about the “RNA-seq results, gene OPA3” value (OPA3 expression in hepatocytes) of the same molecule?
The value was 0.03.

And the “RNA-seq results, gene OTC” value (OTC expression in hepatocytes)?
The value was −0.18.

What about the “RNA-seq results, gene PAF1” value (PAF1 expression in hepatocytes) of the same molecule?
Its value is 0.09.

What about the “RNA-seq results, gene PAH” value (PAH expression in hepatocytes) of the same molecule?
The value was 0.05.

And the “RNA-seq results, gene PANK2” value (PANK2 expression in hepatocytes)?
The value was −0.22.

And the “RNA-seq results, gene PAOX” value (PAOX expression in hepatocytes)?
Its value is 0.16.

What about the “RNA-seq results, gene PC” value (PC expression in hepatocytes) of the same molecule?
The value was 0.17.

And the “RNA-seq results, gene PCCA” value (PCCA expression in hepatocytes)?
The value was 0.13.

What about the “RNA-seq results, gene PCK2” value (PCK2 expression in hepatocytes) of the same molecule?
The value was 0.46.

And the “RNA-seq results, gene PCSK9” value (PCSK9 expression in hepatocytes)?
The value was 0.26.

And the “RNA-seq results, gene PCYT1A” value (PCYT1A expression in hepatocytes)?
The value was 0.09.

And the “RNA-seq results, gene PDGFRA” value (PDGFRA expression in hepatocytes)?
Its value is −0.43.

What about the “RNA-seq results, gene PDP1” value (PDP1 expression in hepatocytes) of the same molecule?
Its value is −0.04.

What about the “RNA-seq results, gene PEPD” value (PEPD expression in hepatocytes) of the same molecule?
The value was 0.32.

What about the “RNA-seq results, gene PEX11A” value (PEX11A expression in hepatocytes) of the same molecule?
The value was 0.02.

What about the “RNA-seq results, gene PEX12” value (PEX12 expression in hepatocytes) of the same molecule?
Its value is 0.11.

And the “RNA-seq results, gene PEX14” value (PEX14 expression in hepatocytes)?
Its value is 0.15.
